Measurements reported in publication PMC9992173, “Mapping of the extracellular RBP4 ligand binding domain on the RBPR2 receptor for Vitamin A transport” (Frontiers in Cell and Developmental Biology, 2023).
No end group written: not given here.

Biological target: T1, mouse RBP4 (Mus musculus, UniProt Q00724)
T1 construct: 6XHis; made in house; host or cells: E. coli
Assay: Surface plasmon resonance (SPR) binding of SYL-motif peptides to immobilized RBP4
Conditions: SPR affinity fit, Figure 6B; repeated in the discussion as calculated binding affinity; read-out: Best-fit values Kd
Protocol: Purified RBP4 protein with >90% purity and 0.56 mg/mL concentration was immobilized on Biacore Sensor Chip CM5 (ITDD Biacore S200 Surface Plasmon Resonance instrument at University of Minnesota). The two-flow cell surface activated for using one as blank and other as test. Using Amine Coupling Kit (Cat. No. BR100050; Cytiva, Marlborough, MA, US) 1-ethyl-3-(3-dimethylaminopropyl) carbodiimide hydrochloride (EDC), N-hydroxysuccinimide (NHS), after surface activation, the purified RBP4 with immobilization buffer 10 mM Sodium acetate, pH 5.0, was immobilized with target of 1,200 Response Unit (RU) for achieving Rmax of 30RU in kinetic study. The reaction stopped and washed with Ethanolamine. The system was re-primed with running buffer PBST (phosphate-buffered saline solution with a 0.05% Tween20 detergent solution). The kinetic assay performed on the two flow cells, the blank was used as reference cell and the active cell with RBP4 was used for the binding study. […] The program was run and non-specific binding on the reference cell subtracted bulk refractive index from the active sensorgram and analyzed for the association, dissociation and stabilization of the reads. […]

Sequence: HVRDKLDMFEDKLESYLTHMNETGTLTPIILQVKELISVTKG [mouse RBPR2]
- Kd: 25.4 µM
